Measured values published in PMC9027532, “Preclinical Pharmacokinetic Studies of a Novel Diuretic Inhibiting Urea Transporters” (Molecules, 2022).

How the values were obtained:
[1] = test system: UT-B; parameters: method as in PMID 34601246; conditions: mice; read-out: inhibitory effect on UT-B; cited from earlier work
[2] = Blood plasma ratio, rat blood; type: in vitro ADME, SD rats; conditions: for Blood Plasma Ratio: rat
Experimental: The BPR of 25a in rats and humans was assessed. […] In addition, a significant species difference between rats and humans was observed (p < 0.05, Student’s t-test, n = 3).
The blood plasma ratio of 25a was investigated as previously reported. Briefly, fresh whole blood was collected into collection tubes containing K2–EDTA as an anticoagulant from SD rats and healthy volunteers. Blood spiked with 50, 500, and 2500 ng/mL 25a was incubated in the incubator with 5% CO2 at 37 ± 1 °C for 1 h. Some of the incubated samples were processed as blood samples; the remaining incubated samples were centrifuged to generate plasma samples. The concentration of 25a in samples was determined using the validated LC–MS/MS method.

[3] = Stability of 25a in rat plasma, urine, feces and bile under storage conditions; type: in vitro ADME
Experimental: The stability profiles of 25a in the given matrices stored under different conditions (4 °C for 24 h, 25 °C for 4 h, three freeze–thaw cycles, and −80 °C for 30 days) are shown in Table 5.
The accuracy and precision were evaluated by calculating the intraday and interday RE and CV of the QC samples. The RE should be within ±15% of the theoretical concentrations (3, 100, and 800 ng/mL). The CV values should be no more than 15%. For the LLOQ, the cutoff values of RE and CV were 100% ± 20% and <20%. The stability of 25a in the biological matrices (rat plasma, urine, fecal homogenate, and bile) was assessed at 3, 100, and 800 ng/mL (n = 6) under different storage conditions, which included storage at room temperature for 4 h, storage at 4 °C for 24 h, three freeze–thaw cycles, and storage at −80 °C for 30 days.

SMILES: CC(=O)Nc1ccc(NC(=O)c2ccc(C(C)=O)o2)cc1 [Compound 25a, N-(4-acetamidophenyl)-5-acetylfuran-2-carboxamide]
- Stability RE ([3]; rat bile, HQC 800 ng/mL, 4 °C for 24 h): −7.1%
- Stability RE ([3]; rat bile, HQC 800 ng/mL, 25 °C for 4 h): −7.8%
- Stability RE ([3]; rat bile, HQC 800 ng/mL, three freeze–thaw cycles): −12.2%
- Stability RE ([3]; rat bile, HQC 800 ng/mL, −80 °C for 30 days): −7.1%
- Stability RE ([3]; rat bile, LQC 3 ng/mL, 4 °C for 24 h): −14.7%
- Stability RE ([3]; rat bile, LQC 3 ng/mL, 25 °C for 4 h): −14.9%
- Stability RE ([3]; rat bile, LQC 3 ng/mL, three freeze–thaw cycles): −5.8%
- Stability RE ([3]; rat bile, LQC 3 ng/mL, −80 °C for 30 days): −2.1%
- Stability RE ([3]; rat bile, MQC 100 ng/mL, 4 °C for 24 h): −3.9%
- Stability RE ([3]; rat bile, MQC 100 ng/mL, 25 °C for 4 h): −5.1%
- Stability RE ([3]; rat bile, MQC 100 ng/mL, three freeze–thaw cycles): −5.2%
- Stability RE ([3]; rat bile, MQC 100 ng/mL, −80 °C for 30 days): −3.9%
- Stability RE ([3]; rat feces, HQC 800 ng/mL, 4 °C for 24 h): −5.3%
- Stability RE ([3]; rat feces, HQC 800 ng/mL, 25 °C for 4 h): −2.4%
- Stability RE ([3]; rat feces, HQC 800 ng/mL, three freeze–thaw cycles): −9.1%
- Stability RE ([3]; rat feces, HQC 800 ng/mL, −80 °C for 30 days): −5.3%
- Stability RE ([3]; rat feces, LQC 3 ng/mL, 4 °C for 24 h): 3.9%
- Stability RE ([3]; rat feces, LQC 3 ng/mL, 25 °C for 4 h): −5.2%
- Stability RE ([3]; rat feces, LQC 3 ng/mL, three freeze–thaw cycles): −5.2%
- Stability RE ([3]; rat feces, LQC 3 ng/mL, −80 °C for 30 days): 1.2%
- Stability RE ([3]; rat feces, MQC 100 ng/mL, 25 °C for 4 h): 1.3%
- Stability RE ([3]; rat feces, MQC 100 ng/mL, three freeze–thaw cycles): −3.2%
- Stability RE ([3]; rat plasma, HQC 800 ng/mL, 4 °C for 24 h): −4.5%
- Stability RE ([3]; rat plasma, HQC 800 ng/mL, 25 °C for 4 h): −3.1%
- Stability RE ([3]; rat plasma, HQC 800 ng/mL, three freeze–thaw cycles): −7.6%
- Stability RE ([3]; rat plasma, HQC 800 ng/mL, −80 °C for 30 days): −4.5%
- Stability RE ([3]; rat plasma, LQC 3 ng/mL, 4 °C for 24 h): 2.8%
- Stability RE ([3]; rat plasma, LQC 3 ng/mL, 25 °C for 4 h): −4.9%
- Stability RE ([3]; rat plasma, LQC 3 ng/mL, three freeze–thaw cycles): −3.6%
- Stability RE ([3]; rat plasma, LQC 3 ng/mL, −80 °C for 30 days): 1.1%
- Stability RE ([3]; rat plasma, MQC 100 ng/mL, 4 °C for 24 h): 3.7%
- Stability RE ([3]; rat plasma, MQC 100 ng/mL, 25 °C for 4 h): −2.5%
- Stability RE ([3]; rat plasma, MQC 100 ng/mL, three freeze–thaw cycles): −4.0%
- Stability RE ([3]; rat plasma, MQC 100 ng/mL, −80 °C for 30 days): 3.7%
- Stability RE ([3]; rat urine, HQC 800 ng/mL, 4 °C for 24 h): −2.3%
- Stability RE ([3]; rat urine, HQC 800 ng/mL, 25 °C for 4 h): −2.3%
- Stability RE ([3]; rat urine, HQC 800 ng/mL, three freeze–thaw cycles): −1.5%
- Stability RE ([3]; rat urine, HQC 800 ng/mL, −80 °C for 30 days): −2.3%
- Stability RE ([3]; rat urine, LQC 3 ng/mL, 4 °C for 24 h): −8.3%
- Stability RE ([3]; rat urine, LQC 3 ng/mL, 25 °C for 4 h): 3.2%
- Stability RE ([3]; rat urine, LQC 3 ng/mL, three freeze–thaw cycles): 5.8%
- Stability RE ([3]; rat urine, LQC 3 ng/mL, −80 °C for 30 days): 6.2%
- Stability RE ([3]; rat urine, MQC 100 ng/mL, 4 °C for 24 h): 2.5%
- Stability RE ([3]; rat urine, MQC 100 ng/mL, 25 °C for 4 h): 4.3%
- Stability RE ([3]; rat urine, MQC 100 ng/mL, three freeze–thaw cycles): −5.2%
- Stability RE ([3]; rat urine, MQC 100 ng/mL, −80 °C for 30 days): 2.5%
